Bounds are passed on as bounds.

One data set relates to Coxsackievirus B3. The data set is described as follows: Antivirus activity against Coxsackievirus B3 infected in African green monkey vero cells assessed as inhibition of virus-induced cytopathic effect. It is filed as functional, organism-based. The conditions noted are these: Enterovirus B. On the technique in general: Cytopathic effects are the visible damage that an infection or toxin causes in cultured cells.

The nature of data set [1]: Cytotoxicity against African green monkey Vero cells assessed as growth inhibition after 48 hrs. It is filed as cell-based. The conditions noted are these: chlorocebus sabaeus, read-out: TC50.
Data set [2] in a line: Selectivity index, ratio of TC50 for African green monkey vero cells to IC50 for Coxsackievirus B3. It is filed as toxicity, cell-based. The conditions noted are these: read-out: Selectivity Index.

The term IC50 denotes the midpoint of a concentration-inhibition curve. As to `COC(=O)CCC[C@@H]1[C@H]2CCCN3CCC[C@@H](CN1S(=O)(=O)c1ccc(/C(C)=N/O)cc1)[C@@H]23`, the IC50 in the data set on Coxsackievirus B3 was greater than 39.3 µM. Further, in data set [1], the CC50 at 48 h is 53.9 µM.
Turning to `COCCCC[C@@H]1[C@H]2CCCN3CCC[C@@H](CN1S(=O)(=O)c1cccc(C(F)(F)F)c1)[C@@H]23`, in data set [2], the selectivity ratio amounted to 57.4. In the data set with Coxsackievirus B3, the IC50 amounted to 1.31 µM. For the same compound, the CC50 at 48 h in data set [1] worked out at 75.4 µM.
On to `COCCCC[C@@H]1[C@H]2CCCN3CCC[C@@H](CN1S(=O)(=O)c1cccc(C#N)c1)[C@@H]23`, for which the selectivity ratio in data set [2] turned out to be 39.5. Moreover, in the data set on Coxsackievirus B3, the IC50 came out at 8.41 µM. For the same compound, the CC50 at 48 h in data set [1] turned out to be 332 µM.
`CN1CCN(CCCC[C@@H]2[C@H]3CCCN4CCC[C@@H](CN2S(=O)(=O)c2cccc(C#N)c2)[C@@H]34)CC1`: the IC50 with Coxsackievirus B3 was greater than 22.2 µM. Also, the CC50 at 48 h in data set [1] is 116 µM.
Take `CC(=O)c1ccc(S(=O)(=O)N2C[C@@H]3CCCN4CCC[C@@H]([C@H]34)[C@H]2CCCCN(C)C)cc1`: the IC50 with Coxsackievirus B3 was greater than 22.2 µM.
Take `O=C(CCC[C@@H]1[C@H]2CCCN3CCC[C@@H](CN1S(=O)(=O)c1ccc(OC(F)(F)F)cc1)[C@@H]23)N1CCC1`: in data set [2], the selectivity ratio was determined as 21.2. In addition, the IC50 in the data set on Coxsackievirus B3 was found to be 5.58 µM. In addition, the CC50 at 48 h in data set [1] stood at 170 µM.
On to `N#Cc1ccc(S(=O)(=O)N2C[C@@H]3CCCN4CCC[C@@H]([C@H]34)[C@H]2CCCCN2CCOCC2)cc1`, for which the IC50 with Coxsackievirus B3 was greater than 22.2 µM. The CC50 at 48 h in data set [1] amounted to 96.2 µM.
As to `O=C(CCC[C@@H]1[C@H]2CCCN3CCC[C@@H](CN1S(=O)(=O)c1ccc(OC(F)(F)F)cc1)[C@@H]23)N1CCOCC1`, the selectivity ratio in data set [2] is 22.5. In addition, in the data set with Coxsackievirus B3, the IC50 was 7.19 µM. Besides, the CC50 at 48 h in data set [1] is 162 µM.
Take `CC(=O)c1ccc(S(=O)(=O)N2C[C@@H]3CCCN4CCC[C@@H]([C@H]34)[C@H]2CCCC(=O)O)cc1`: in the data set on Coxsackievirus B3, the IC50 is greater than 138 µM. Moreover, the CC50 at 48 h in data set [1] is greater than 413 µM.
On to `NC(=O)CCC[C@@H]1[C@H]2CCCN3CCC[C@@H](CN1S(=O)(=O)c1cccc(C(F)(F)F)c1)[C@@H]23`, for which the selectivity ratio in data set [2] came to 40.8. Moreover, the IC50 with Coxsackievirus B3 was determined as 4.33 µM. Besides, in data set [1], the CC50 at 48 h was found to be 177 µM.
As to `O=S(=O)(c1ccc(OC(F)(F)F)cc1)N1C[C@@H]2CCCN3CCC[C@@H]([C@H]23)[C@H]1CCCCO`, the selectivity ratio in data set [2] amounted to 10.1. In addition, the IC50 in the data set with Coxsackievirus B3 was found to be 10 µM. Also, in data set [1], the CC50 at 48 h came to 101 µM.
In the case of `CC(=O)c1ccc(S(=O)(=O)N2C[C@@H]3CCCN4CCC[C@@H]([C@H]34)[C@H]2CCCC(=O)N2CCOCC2)cc1`, in the data set with Coxsackievirus B3, the IC50 is greater than 118 µM. Also, the CC50 at 48 h in data set [1] is greater than 361 µM.
On to `CC(O)c1ccc(S(=O)(=O)N2C[C@@H]3CCCN4CCC[C@@H]([C@H]34)[C@H]2CCCCO)cc1` (some centres undefined), for which the IC50 in the data set with Coxsackievirus B3 was greater than 142 µM. For the same compound, the CC50 at 48 h in data set [1] is greater than 425 µM.
`O=C(CCC[C@@H]1[C@H]2CCCN3CCC[C@@H](CN1S(=O)(=O)c1cccc(C(F)(F)F)c1)[C@@H]23)N1CCOCC1`: the selectivity ratio in data set [2] was found to be 38.9. Besides, in the data set with Coxsackievirus B3, the IC50 was 3.95 µM. In addition, the CC50 at 48 h in data set [1] amounted to 156 µM.
As for `CN(C)CCCC[C@@H]1[C@H]2CCCN3CCC[C@@H](CN1S(=O)(=O)c1ccc(C#N)cc1)[C@@H]23`, the concentration for half-maximal inhibition (IC50) with Coxsackievirus B3 was greater than 22.2 µM. Also, the CC50 at 48 h in data set [1] stood at 96.2 µM.
Turning to `COC(=O)CCC[C@@H]1[C@H]2CCCN3CCC[C@@H](CN1S(=O)(=O)c1ccc(C(C)=O)cc1)[C@@H]23`, the selectivity ratio in data set [2] came out at 22.5. Moreover, in the data set on Coxsackievirus B3, the IC50 worked out at 8.58 µM. For the same compound, the CC50 at 48 h in data set [1] worked out at 193 µM.
As for `O=C(O)CCC[C@@H]1[C@H]2CCCN3CCC[C@@H](CN1S(=O)(=O)c1ccc(OC(F)(F)F)cc1)[C@@H]23`, the IC50 with Coxsackievirus B3 was greater than 127 µM. Besides, in data set [1], the CC50 at 48 h was greater than 380 µM.
`CC(=O)c1ccc(S(=O)(=O)N2C[C@@H]3CCCN4CCC[C@@H]([C@H]34)[C@H]2CCCCN2CCOCC2)cc1`: in the data set on Coxsackievirus B3, the IC50 is greater than 22.2 µM.
Turning to `CN(C)C(=O)CCC[C@@H]1[C@H]2CCCN3CCC[C@@H](CN1S(=O)(=O)c1cccc(C(F)(F)F)c1)[C@@H]23`, in data set [2], the selectivity ratio is 67.2. Besides, the IC50 with Coxsackievirus B3 came out at 2.49 µM. The CC50 at 48 h in data set [1] amounted to 168 µM.
For the compound `CN1CCN(CCCC[C@@H]2[C@H]3CCCN4CCC[C@@H](CN2S(=O)(=O)c2ccc(C#N)cc2)[C@@H]34)CC1`, the IC50 with Coxsackievirus B3 was greater than 22.2 µM.
`CC(=O)c1ccc(S(=O)(=O)N2C[C@@H]3CCCN4CCC[C@@H]([C@H]34)[C@H]2CCCC(=O)N(C)C)cc1`: the concentration for half-maximal inhibition (IC50) in the data set on Coxsackievirus B3 was greater than 130 µM. Also, the CC50 at 48 h in data set [1] is greater than 391 µM.
For the compound `CN1CCN(CCCC[C@@H]2[C@H]3CCCN4CCC[C@@H](CN2S(=O)(=O)c2ccc(S(C)(=O)=O)cc2)[C@@H]34)CC1`, the IC50 with Coxsackievirus B3 was greater than 22.2 µM.
As to `CNC(=O)CCC[C@@H]1[C@H]2CCCN3CCC[C@@H](CN1S(=O)(=O)c1cccc(C(F)(F)F)c1)[C@@H]23`, the selectivity ratio in data set [2] was found to be 67.2. For the same compound, the IC50 in the data set on Coxsackievirus B3 was 2.56 µM. Moreover, the CC50 at 48 h in data set [1] came to 172 µM.
For the compound `CC(=O)c1ccc(S(=O)(=O)N2C[C@@H]3CCCN4CCC[C@@H]([C@H]34)[C@H]2CCCCN2CCN(C)CC2)cc1`, the IC50 in the data set on Coxsackievirus B3 is greater than 22.2 µM.
Turning to `CN1CCN(CCCC[C@@H]2[C@H]3CCCN4CCC[C@@H](CN2S(=O)(=O)c2cccc(C(F)(F)F)c2)[C@@H]34)CC1`, the IC50 with Coxsackievirus B3 was greater than 7.4 µM. Moreover, in data set [1], the CC50 at 48 h was found to be 51.5 µM.
With `COC(=O)CCC[C@@H]1[C@H]2CCCN3CCC[C@@H](CN1S(=O)(=O)c1ccc(OC(F)(F)F)cc1)[C@@H]23`, the selectivity ratio in data set [2] stood at 13. Moreover, in the data set with Coxsackievirus B3, the 50% inhibitory concentration (IC50) worked out at 14.7 µM. Also, in data set [1], the CC50 at 48 h came out at 191 µM.
`COC(=O)c1ccc(S(=O)(=O)N2C[C@@H]3CCCN4CCC[C@@H]([C@H]34)[C@H]2CCCCN2CCN(C)CC2)cc1`: the IC50 in the data set on Coxsackievirus B3 was greater than 22.2 µM.
Take `CC(=O)c1ccc(S(=O)(=O)N2C[C@@H]3CCCN4CCC[C@@H]([C@H]34)[C@H]2CCCC(=O)N2CCC2)cc1`: the IC50 in the data set on Coxsackievirus B3 was greater than 127 µM. The CC50 at 48 h in data set [1] was greater than 382 µM.
With `CN(C)C(=O)CCC[C@@H]1[C@H]2CCCN3CCC[C@@H](CN1S(=O)(=O)c1ccc(OC(F)(F)F)cc1)[C@@H]23`, the selectivity ratio in data set [2] amounted to 63.3. Besides, the IC50 with Coxsackievirus B3 amounted to 2.74 µM. In data set [1], the CC50 at 48 h amounted to 174 µM.

The values are drawn from ChEMBL document CHEMBL3603764, “Structure-activity relationship of N-benzenesulfonyl matrinic acid derivatives as a novel class of coxsackievirus B3 inhibitors” (Bioorg Med Chem Lett, 2015).
